What all share (type): cell-based
In assay [1] the test system is Chikungunya virus (CHIKV). In words: microbe, parasite or virus in culture. The conditions noted are these: Chikungunya virus, Vero, 48 h, read-out: Percent viral inhibition CHKV.
Assay [2] has as its system dengue virus (DENV). Briefly: microbe, parasite or virus in culture. The conditions noted are these: Dengue virus, Vero, 120 h, read-out: Percent viral inhibition DENY.
Assay [3] relates to Marburg virus (MARV). In words: organism not typed. The settings on record: Vero, 72 h, read-out: Percent viral inhibition MARV.

These results are taken from patent US20230011571A1, “SMALL MOLECULE FURIN INHIBITORS FOR TREATING INFECTIOUS DISEASES” (BP Asset V, Inc., priority 2019, published 2023).

As a reminder, the inhibition is the relative decrease from the control value, in per cent. Turning to `CNC(=O)CN1CCN(Cc2cc(Oc3ccc(N4CCNCC4)nc3)nc(-c3cc(Cl)cc(Cl)c3)c2)CC1` [Example 1, 2-(4-((2-(3,5-dichlorophenyl)-6-((6-(piperazin-1-yl)pyridin-3-yl)oxy)pyridin-4-yl)methyl)piperazin-1-yl)-N-methylacetamide], the inhibition at 1 µM amounted to 6.99% in assay [1], 0% in assay [2] and 0% in assay [3].
Regarding `CC(CC(=O)O)C1CN(Cc2cc(Oc3cnc(N4CCN(C)CC4)nc3)nc(-c3cc(Cl)cc(Cl)c3)c2)C1` (stereo not drawn) [Example 127, 3-(1-((2-(3,5-dichlorophenyl)-6-((2-(4-methylpiperazin-1-yl)pyrimidin-5-yl)oxy)pyridin-4-yl)methyl)azetidin-3-yl)butanoic acid], the inhibition at 1 µM came out at 26% in assay [1], 0% in assay [2] and 52.1% in assay [3].
On to `NC1CCN(c2ncc(Oc3cc(CN4CCC(CC(=O)O)CC4)cc(-c4cc(Cl)cc(Cl)c4)n3)cn2)CC1` [Example 158, 2-(1-((2-((2-(4-aminopiperidin-1-yl)pyrimidin-5-yl)oxy)-6-(3,5-dichlorophenyl)pyridin-4-yl)methyl)piperidin-4-yl)acetic acid], for which the inhibition at 1 µM in assay [1] stood at 2.85%; in assay [2], 19.3%; in assay [3], 18%.
For `CC(=O)NCC1CCN(Cc2cc(Oc3cnc(N4CCN(CCO)CC4)nc3)nc(-c3cc(Cl)cc(Cl)c3)c2)CC1` [Example 93, N-((1-((2-(3,5-dichlorophenyl)-6-((2-(4-(2-hydroxyethyl)piperazin-1-yl)pyrimidin-5-yl)oxy)pyridin-4-yl)methyl)piperidin-4-yl)methyl)acetamide], the inhibition at 1 µM in assay [1] came out at 0%; in assay [2], 56.7%; in assay [3], 10.4%.
Take `CC(C)(O)CN1CCN(c2cnc(Oc3cc(CN4CCC(CC(=O)O)CC4)cc(-c4cc(Cl)cc(Cl)c4)n3)cn2)CC1` [Example 343, 2-(1-((2-(3,5-dichlorophenyl)-6-((5-(4-(2-hydroxy-2-methylpropyl)piperazin-1-yl)pyrazin-2-yl)oxy)pyridin-4-yl)methyl)piperidin-4-yl)acetic acid]: the values for the inhibition at 1 µM in assay [1], in assay [2] and in assay [3] were 35.7%, 28.6% and 51%, respectively.
Turning to `CC(=O)CC1CCN(Cc2cc(Oc3cnc(N4CCN(C)CC4)nc3)nc(-c3cc(Cl)cc(Cl)c3)c2)CC1` [Example 155, 1-(1-((2-(3,5-dichlorophenyl)-6-((2-(4-methylpiperazin-1-yl)pyrimidin-5-yl)oxy)pyridin-4-yl)methyl)piperidin-4-yl)propan-2-one], the inhibition at 1 µM came to 14.5% in assay [1], 8.98% in assay [2] and 42% in assay [3].
`CNC(=O)OCC1CCN(Cc2cc(Oc3ccc(N4CCN(CCC(=O)O)CC4)nc3)nc(-c3cc(Cl)cc(Cl)c3)c2)CC1` [Example 77, 3-(4-(5-((6-(3,5-dichlorophenyl)-4-((4-(((methylcarbamoyl)oxy)methyl)piperidin-1-yl)methyl)pyridin-2-yl)oxy)pyridin-2-yl)piperazin-1-yl) propanoic acid]: the inhibition at 1 µM in assay [1] was 42%; in assay [2], 20.6%; in assay [3], 57.2%.
With `O=C(O)CC1CCN(Cc2cc(Oc3cnc(N4CCN(CC5(O)CC5)CC4)nc3)nc(-c3cc(Cl)cc(Cl)c3)c2)CC1` [Example 229, 2-(1-((2-(3,5-dichlorophenyl)-6-((2-(4-((1-hydroxycyclopropyl)methyl)piperazin-1-yl)pyrimidin-5-yl)oxy)pyridin-4-yl)methyl)piperidin-4-yl)acetic acid], the figures for the inhibition at 1 µM in assay [1], in assay [2] and in assay [3] were 43.2%, 54.8% and 23.7%, respectively.
As to `CC(O)CCN1CCN(c2ncc(Oc3cc(CN4CCC(F)CC4)cc(-c4cc(Cl)cc(Cl)c4)n3)cn2)CC1` (stereo not drawn) [Example 60, 4-(4-(5-((6-(3,5-dichlorophenyl)-4-((4-fluoropiperidin-1-yl)methyl)pyridin-2-yl)oxy)pyrimidin-2-yl)piperazin-1-yl)butan-2-ol], the inhibition at 1 µM worked out at 38.8% in assay [1], 79% in assay [2] and 53.6% in assay [3].
For `CN1CCN(c2ncc(Oc3cc(CN4CC[C@@H]5[C@H](CC4)[C@H]5C(=O)O)cc(-c4cc(Cl)cc(Cl)c4)n3)cn2)CC1` [Example 321, (1R,7S,8r)-4-((2-(3,5-dichlorophenyl)-6-((2-(4-methylpiperazin-1-yl)pyrimidin-5-yl)oxy)pyridin-4-yl)methyl)-4-azabicyclo[5.1.0]octane-8-carboxylic acid], the inhibition at 1 µM in assay [1] turned out to be 23.8%; in assay [2], 27.3%; in assay [3], 43.4%.
On to `CC(=O)NCC1CCN(Cc2cc(Oc3ccc(N4CCN(CCCS(C)(=O)=O)CC4)nc3)nc(-c3cc(Cl)cc(Cl)c3)c2)CC1` [Example 251, N-((1-((2-(3,5-dichlorophenyl)-6-((6-(4-(3-(methylsulfonyl)propyl)piperazin-1-yl)pyridin-3-yl)oxy)pyridin-4-yl)methyl)piperidin-4-yl)methyl)acetamide], for which the results for the inhibition at 1 µM in assay [1], in assay [2] and in assay [3] were 0%, 45.5% and 38.9%, respectively.
For `CN1CCN(c2ncc(Oc3cc(CN4CCC(CB(O)O)CC4)cc(-c4cc(Cl)cc(Cl)c4)n3)cn2)CC1` [Example 318, ((1-((2-(3,5-dichlorophenyl)-6-((2-(4-methylpiperazin-1-yl)pyrimidin-5-yl)oxy)pyridin-4-yl)methyl)piperidin-4-yl)methyl)boronic acid] the same measures were 15.3%, 44.6% and 31.6%.
Turning to `NC1(CCO)CCN(c2ncc(Oc3cc(CN4CCC(CC(=O)O)CC4)cc(-c4cc(Cl)cc(Cl)c4)n3)cn2)CC1` [Example 124, 2-(1-((2-((2-(4-amino-4-(2-hydroxyethyl)piperidin-1-yl)pyrimidin-5-yl)oxy)-6-(3,5-dichlorophenyl)pyridin-4-yl)methyl)piperidin-4-yl) acetic acid], the inhibition at 1 µM came out at 21.2% in assay [1], 1.28% in assay [2] and 63.8% in assay [3].
As for `CC(CC1CCN(Cc2cc(Oc3ccc(N4CCN(C)CC4)nc3)nc(-c3cc(Cl)cc(Cl)c3)c2)CC1)C(=O)O` (stereo not drawn) [Example 213, 3-(1-((2-(3,5-dichlorophenyl)-6-((6-(4-methylpiperazin-1-yl)pyridin-3-yl)oxy)pyridin-4-yl)methyl)piperidin-4-yl)-2-methylpropanoic acid], the inhibition at 1 µM in assay [1] is 26.5%; in assay [2], 28%; in assay [3], 49.3%.
On to `CC(=O)NCC1CCN(Cc2cc(Oc3ccc(N4CCN(CC(=O)O)CC4)nc3)nc(-c3cc(Cl)cc(Cl)c3)c2)CC1` [Example 10], for which the inhibition at 1 µM in assay [1] is 13.1%; in assay [2] it was 8.5%; in assay [3] it was 34.8%.
On to `CC(CC1CCN(Cc2cc(Oc3cnc(N4CCCN(C)CC4)cn3)nc(-c3cc(Cl)cc(Cl)c3)c2)CC1)C(=O)O` (stereo not drawn) [Example 351, 3-(1-((2-(3,5-dichlorophenyl)-6-((5-(4-methyl-1,4-diazepan-1-yl)pyrazin-2-yl)oxy)pyridin-4-yl)methyl)piperidin-4-yl)-2-methylpropanoic acid], for which the inhibition at 1 µM in assay [1] came out at 22.7%; in assay [2], 42.8%; in assay [3], 60.4%.
